Measured values published in patent EP2526954A1, “Bioavailable silicon complex, method for preparing same and use thereof” (Dexsil Labs, priority 2011, dated 2012).

Legend:
[1] = en solution aqueuse, en dessous d'un pH de 6,8; cited from earlier work
[2] = ATR-FTIR spectroscopy of the effect on artificial lipid bilayer membranes (phase transition); settings: DPPC membranes
Source text: (§1) L'effet, sur les bicouches lipidiques qui constituent les membranes biologiques, d'un complexe suivant l'invention renfermant de l'acide orthosilicique et de la vanilline, a été étudié par spectroscopie ATR-FTIR. Des membranes artificielles formées de DPPC (1,2 dipalmitoyl-sn-glycéro-3-phosphatydilcholine) ou d'un mélange 85/15 de DPPC/DPPS (1,2 dipalmitoyl-sn-glycéro-3-phosphatydilsérine) ont été utilisées. Les membranes présentent des transitions de phase à des températures caractéristiques (Tc à 41 °C et 53°C pour le DPPC et le DPPS respectivement). […] Les résultats tendent à montrer que le complexe s'insère dans la bicouche lipidique et de ce fait diminue les interactions entre les lipides. […] Il se produit une séparation de phase et le mélange lipidique n'est plus homogène. Ceci suggère que le composé aromatique stabilisant l'acide orthosilicique a une affinité plus grande pour un des deux lipides ce qui provoque une ségrégation spatiale des composants de la membrane.

[3] = ATR-FTIR spectroscopy of the effect on artificial mixed lipid bilayer membranes (phase transition); settings: DPPC/DPPS 85/15 membranes
Source text: as §1

Row | Substance | dissociation du complexe [1] | effet sur la transition de phase des lipides [2] | effet sur le mélange lipidique [3]
1 | complexe de silicium-catéchol | complètement dissocié |  | 
2 | complexe stabilisé d'acide orthosilicique et de 4-hydroxy-3-méthoxybenzaldéhyde (vanilline) [Exemple 1] |  | diminue l'énergie requise pour que les lipides participent à la transition de phase | induit une démixtion des deux lipides
